Columns and labels:
Format in all cases: biochemical
AR-LBD wt = biological target: T1, AR-LBD wt (Homo sapiens, UniProt P10275); test: Lanthascreen TR-FRET AR coactivator (D11-FxxLF) assay, AR-LBD wt; details: for type of AR antagonism (full / partial): TR-FRET in agonist and antagonist mode; for IC50: TR-FRET, D11-FxxLF peptide, DHT = EC80, read-out: Activity (AR wt TR-FRET)
T1 sequence (P10275 669-900 limits assumed): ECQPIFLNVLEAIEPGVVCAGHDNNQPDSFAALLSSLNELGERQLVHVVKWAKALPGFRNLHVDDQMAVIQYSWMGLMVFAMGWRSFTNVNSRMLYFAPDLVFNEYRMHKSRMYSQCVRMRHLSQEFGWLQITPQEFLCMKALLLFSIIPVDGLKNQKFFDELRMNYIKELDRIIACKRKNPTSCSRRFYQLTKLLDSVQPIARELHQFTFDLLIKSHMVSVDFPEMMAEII

[1] = biological target: T2, Glucocorticoid Receptor (GR) LBD (Homo sapiens, UniProt P04150); test: TR-FRET SRC1-4 coactivator recruitment assay, GR LBD; details: Dexamethasone = EC80; for effect on SRC1-4 recruitment by GR LBD: 100 μM to 12.5 μM or single point 100 μM; for IC50: TR-FRET, ± SEM (n = 6), read-out: NR LBDs IC50 (μM) GR
T2 construct: purchased Invitrogen PV4683
T2 sequence (P04150 524-758 limits assumed): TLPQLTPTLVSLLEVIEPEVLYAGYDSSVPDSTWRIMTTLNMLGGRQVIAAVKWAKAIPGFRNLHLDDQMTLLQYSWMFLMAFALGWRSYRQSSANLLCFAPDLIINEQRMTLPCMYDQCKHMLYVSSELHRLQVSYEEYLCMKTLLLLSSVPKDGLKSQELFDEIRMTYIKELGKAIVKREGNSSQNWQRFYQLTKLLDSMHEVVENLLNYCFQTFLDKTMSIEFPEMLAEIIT
Method: (§1) Compound binding affinities for Progesterone Receptor (PR), Glucocorticoid Receptor (GR), Estrogen Receptor alpha and Estrogen Receptor beta were determined using TR-FRET (Table 2).
Dexamethasone bound receptor recruitment of the fluorescently labelled SCR1-4 coactivator was unimpaired at screening concentrations up to 100 μM for all the diarylhydrazides evaluated (FIG. 5).
(§2) Lanthascreen TR-FRET AR Coactivator Assay kit (Invitrogen, cat no. PV4381) was used to screen for potential coactivator disruptors.
(§3) TR FRET values were calculated at 10 flashes per well, using a delay time of 100 μs and integration time 200 μs as recommended by the Invitrogen assay guidelines. […] A serial dilution of compounds was firstly prepared in 100×DMSO (Sigma-Aldrich) starting from the maximum desired concentration to achieve a 12 point range concentration using 96-well polypropylene plates (Nalgene Nunc, Rochester, N.Y.). Each 100× solution was diluted to 2× concentration with TR-FRET co-regulator buffer A (Invitrogen proprietary buffer), yielding a final concentration of 1% DMSO in each well.
(§4) D11-FxxLF and Tb antibody were premixed in light protecting vials prior to use. A final concentration of DTT 5 mM was used in the assay buffer in order to prevent protein degradation. All plates (agonist and antagonist mode) were incubated between 2 and 4 hours at room temperature protected from light prior to TR-FRET measurement. […] Data was fitted using the sigmoidal dose response (variable slope) available from Graphpad Prism 5. Y=Bottom+(Top-Bottom)/(1+10^((Log IC50−X)*HillSlope))
(§5) The same procedure was used for AR T877A (Invitrogen cat no. PV4667), PR (Invitrogen cat no. PV4666), ER-α (Invitrogen cat no. PV4544), ER-β (Invitrogen cat no. PV4541) and GR (Invitrogen cat no. PV4683). The assay was adapted to exclude possible non-specific aggregation mechanism of inhibition by adding very low concentration of detergent Triton X-100 (0.001%) to the assay buffer following the Shoichet review guidelines [Shoichet BK (2006) Screening in a spirit haunted world. Drug Discov Today 11:607-615].

[2] = biological target: T3, Progesterone Receptor (PR) LBD (Homo sapiens, UniProt P06401); test: TR-FRET SRC1-4 coactivator recruitment assay, PR LBD; details: Progesterone = EC80; for effect on PR LBD recruitment of fluorescent labelled SRC1-4 coactivator: maximal concentration of 100 μM; for IC50: TR-FRET, ± SEM (n = 6), read-out: NR LBDs IC50 (μM) PR
T3 construct: purchased Invitrogen PV4666
T3 sequence (P06401 679-913 limits assumed): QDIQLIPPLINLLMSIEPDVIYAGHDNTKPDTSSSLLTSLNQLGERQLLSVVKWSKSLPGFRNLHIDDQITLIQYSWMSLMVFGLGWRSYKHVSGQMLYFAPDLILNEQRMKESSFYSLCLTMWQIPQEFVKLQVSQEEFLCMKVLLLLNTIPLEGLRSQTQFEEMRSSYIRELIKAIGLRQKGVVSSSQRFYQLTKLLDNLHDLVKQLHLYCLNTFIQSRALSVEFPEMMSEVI
Method: as §1, §2, §3, §4, §5

[3] = biological target: T4, Estrogen Receptor alpha (ER-α) LBD (Homo sapiens, UniProt P03372); test: TR-FRET PGC1-α coactivator recruitment assay, ERα LBD; details: Estradiol = EC80; for effect on ERα LBD recruitment of fluorescent labelled PGC1-α coactivator: maximal concentration of 100 μM; for IC50: TR-FRET, ± SEM (n = 6), read-out: NR LBDs IC50 (μM) ER-α
T4 sequence (P03372 311-547 limits assumed): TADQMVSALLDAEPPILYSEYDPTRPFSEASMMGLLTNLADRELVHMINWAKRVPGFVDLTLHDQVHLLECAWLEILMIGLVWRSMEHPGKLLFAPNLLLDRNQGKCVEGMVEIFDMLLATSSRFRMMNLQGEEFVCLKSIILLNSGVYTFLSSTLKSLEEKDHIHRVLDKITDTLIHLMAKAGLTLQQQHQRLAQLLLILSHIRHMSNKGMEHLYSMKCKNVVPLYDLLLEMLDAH
Method: as §1
(§6) Selectivity of the diarylhydrazide scaffold for the AR was determined through a TR-FRET assay in ERα (FIGS. 8A & 9A1) and ERR (FIGS. 8B & 9A2). […] The non-LBP nature of this inhibition was confirmed by a FP assay (FIGS. 9C, 9B1 & 9B2).
as §2, §3, §4, §5

[4] = biological target: Estrogen Receptor beta (ER-β) LBD (Homo sapiens, UniProt Q92731); test: TR-FRET PGC1-α coactivator recruitment assay, ERβ LBD; details: Estradiol = EC80; for effect on ERβ LBD recruitment of fluorescent labelled PGC1-α coactivator: maximal concentration of 100 μM; for IC50: TR-FRET, ± SEM (n = 6), read-out: NR LBDs IC50 (μM) ER-β
Method: as §1, §6, §2, §3, §4, §5

Estrogen Receptor beta (ER-β) LBD, sequence (Q92731 264-498 limits assumed): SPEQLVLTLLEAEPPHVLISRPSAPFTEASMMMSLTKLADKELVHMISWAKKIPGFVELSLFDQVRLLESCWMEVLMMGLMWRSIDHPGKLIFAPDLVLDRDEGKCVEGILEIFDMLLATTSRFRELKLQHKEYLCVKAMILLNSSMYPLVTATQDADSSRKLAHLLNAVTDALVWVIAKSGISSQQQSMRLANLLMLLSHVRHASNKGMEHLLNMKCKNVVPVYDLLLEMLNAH

SMILES | type of AR antagonism (full / partial) (AR-LBD wt) | IC50 (AR-LBD wt) [µM] | effect on SRC1-4 recruitment by GR LBD [1] | IC50 [1] [µM] | effect on PR LBD recruitment of fluorescent labelled SRC1-4 coactivator [2] | effect on ERα LBD recruitment of fluorescent labelled PGC1-α coactivator [3] | effect on ERβ LBD recruitment of fluorescent labelled PGC1-α coactivator [4] | IC50 [2] [µM] | IC50 [3] [µM] | IC50 [4] [µM] | effect on PR recruitment of fluorescent labelled SRC1-4 ([2]; 100 μM to 45 nM) | effect on ERα recruitment of fluorescent labelled PGC1-α ([3]; 100 μM to 45 nM) | effect on ERβ recruitment of fluorescent labelled PGC1-α ([4]; 100 μM to 45 nM)
Cc1cccc(/C=N/NC(=O)c2cc3ccccc3cc2O)c1O [MDG616] | full AR antagonists | 13.2 ± 2.8 | do not affect | > 100 | inhibit | inhibit | inhibit | – | – | – | – | – | –
O=C(O)c1ccc(O)c(/C=N/NC(=O)c2cc3ccccc3cc2O)c1 [MDG630] | full AR antagonists | 43.5 ± 3.7 | do not affect | > 100 | inhibit | inhibit | inhibit | – | – | – | – | – | –
COC(=O)c1ccc(O)c(/C=N/NC(=O)c2cc3ccccc3cc2O)c1 [MDG629] | full AR antagonists | 60.8 | do not affect | > 100 | inhibit | inhibit | inhibit | – | – | – | – | – | –
O=C(N/N=C/c1cccc(Cl)c1)c1cc2ccccc2cc1O [MDG491] | full AR antagonists | 42.7 ± 3.5 | do not affect | > 100 | inhibit | inhibit | inhibit | 50 to 100 | > 100 | > 100 | – | – | –
O=C(N/N=C/c1ccccc1O)c1cc2ccccc2cc1O [MDG608] | full AR antagonists | 55.2 ± 19.2 | do not affect | > 100 | inhibit | inhibit | inhibit | > 100 | > 100 | – | – | – | –
COc1cccc(/C=N/NC(=O)c2cc3ccccc3cc2O)c1O [MDG617] | full AR antagonists | 12.2 ± 0.5 | do not affect | > 100 | inhibit | inhibit | inhibit | – | – | – | – | – | –
CCCOc1ccc(/C=N/NC(=O)c2cc3c(ccc4ccccc43)o2)cc1 [MDG508] | full AR antagonists | – | do not affect | > 100 | – | – | – | 5.9 | 4 ± 1.4 | 2.9 | partially inhibit | partially inhibit | partially inhibit
O=C(N/N=C/c1cc([N+](=O)[O-])ccc1O)c1cc2ccccc2cc1O [MDG614] | full AR antagonists | 33.4 ± 4.7 | do not affect | > 100 | inhibit | inhibit | inhibit | – | > 100 | > 100 | – | – | –
O=C(N/N=C/c1cc(O)ccc1O)c1cc2ccccc2cc1O [MDG611] | full AR antagonists | 39.9 ± 16.9 | do not affect | > 100 | inhibit | inhibit | inhibit | – | – | – | – | – | –
COc1ccc(O)c(/C=N/NC(=O)c2cc3ccccc3cc2O)c1 [MDG612] | full AR antagonists | 52.9 ± 13.5 | do not affect | > 100 | inhibit | inhibit | inhibit | 50 to 100 | – | – | – | – | –
O=C(N/N=C/c1cc(Cl)ccc1O)c1cc2ccccc2cc1O [MDG605] | full AR antagonists | 10.3 ± 1.4 | do not affect | > 100 | inhibit | inhibit | inhibit | – | 50 to 100 | 50 to 100 | – | – | –
